# Source: publication PMC12345401, “The mRNA Translation Inhibitor Vioprolide A Prevents Inflammatory Pain‐Like Behaviour With Limited Action on Already Established Pain‐Like Behaviour in Mice” (European Journal of Pain (London, England), 2025)
# “Also recorded” adds a separate entry of the source.
# Assays:
# [1] = Pharmacokinetic profile, brain levels (LC-MS); assay type: in vivo; settings: 0.3 mg/kg i.p., mouse brain, over 8 h
# Description: (§1) The pharmacokinetic profile of vioprolide A was determined by staff of Pharmacelsus (Saarbrücken, Germany) in male C57BL/6 mice as described (Balzulat et al. [2024]). A single dose of 0.3 mg/kg vioprolide A (in NaCl 0.9% + 1% DMSO) was i.p. administered, and two blood samples were obtained from each animal retrobulbarly under short isoflurane anaesthesia (at 0.25 and 0.5 h from 3 mice; at 1 and 2 h from 3 mice; and at 4 and 8 h from 3 mice). Immediately after the last blood sample was taken, the animal was euthanised by cervical dislocation, and the brain was collected. Plasma and brain concentrations of vioprolide A were determined by LC–MS analysis. The pharmacokinetic analysis was performed applying a non‐compartment model using the Kinetica 5.0 software (Thermo Scientific, Waltham, USA). All given parameters were obtained by trapezoid area calculation.
# C57BL/6N mice [2] = assay: Zymosan-induced peritonitis, dynamic weight bearing; assay type: in vivo, mouse; settings: 0.3 mg/kg s.c. into the neck 16 h prior to i.p. zymosan; DWB 5 h after zymosan; vs vehicle
# Description: Acute peritonitis was induced by a single intraperitoneal (i.p.) injection (0.5 mL) of a zymosan A suspension (2 mg/mL in phosphate‐buffered saline (PBS) without Ca^2+/Mg^2+; Sigma‐Aldrich, Steinheim, Germany and Gibco, Darmstadt, Germany) as described (Stark et al. [2019]). Vioprolide A (0.3 mg/kg; kindly provided by the group of Prof. Rolf Müller, Helmholtz Institute for Pharmaceutical Research Saarland (HIPS), Helmholtz Center for Infection Research and Department of Pharmacy, Saarland University, Saarbrücken, Germany) or vehicle (1% DMSO in 0.9% NaCl) was subcutaneously (s.c.) injected into the neck (to prevent direct interaction with the i.p. applied zymosan) in a volume of 100 μL 16 h prior to the zymosan injection. An automated dynamic weight bearing (DWB) device (Bioseb, Boulogne, France) was used to assess the pain‐like behaviour during zymosan‐induced peritonitis. […] The recorded weight distribution was analysed using the DWB software as described (Laux‐Biehlmann et al. [2016]; Stark et al. [2019]). A zone was considered valid when the following parameters were detected: ≥ 0.8 g on one captor with a minimum of two adjacent captors recording ≥ 1.0 g. A time segment was considered valid if ≥ 3 stable pictures were detected (Laux‐Biehlmann et al. [2016]; Stark et al. [2019]). […]
# C57BL/6N mice [3] = assay: Zymosan-induced paw inflammation, mechanical hypersensitivity (dynamic plantar aesthesiometer); assay type: in vivo, mouse; settings: 0.3, 1 and 3 mg/kg s.c. 16 h prior to intraplantar zymosan; 1-72 h post-zymosan; vs vehicle
# Description: (§2) Paw inflammation was induced by injecting 20 μL of a zymosan A suspension (5 mg/mL in PBS without Ca^2+/Mg^2+, pH 7.4; Sigma‐Aldrich, St. Louis, USA) into the plantar side of a hindpaw (Petersen et al. [2019]). Vioprolide A (0.3, 1 or 3 mg/kg) or vehicle (1% DMSO in 0.9% NaCl) was s.c. administered into the neck in a volume of 100 μL 16 h prior to the intraplantar zymosan injection.
# (§3) Paw withdrawal latencies following mechanical stimulation were assessed using a dynamic plantar aesthesiometer (Ugo Basile, Gemonio, Italy), which compresses a stainless‐steel probe (0.5‐mm diameter) against the plantar surface of the hindpaw through a wire mesh bottom on which the mice are placed. The applied force was increased from 0 to 5 g over a period of 10 s (0.5 g/s ramp) and then remained constant at 5 g for an additional 10 s (total cutoff time, 20 s). An unequivocal paw withdrawal was evaluated as a response. The paw withdrawal latency was calculated as the average of three to four consecutive exposures with at least 20 s in between. The area under the curve was calculated using Prism 10 (Graph Pad) software.
# C57BL/6N mice [4] = assay: Zymosan-induced paw oedema (plethysmometer); assay type: in vivo, mouse; settings: 0.3, 1 and 3 mg/kg s.c. 16 h prior to intraplantar zymosan; vs vehicle
# Description: as §2
# The volume of the hindpaw was measured using a plethysmometer (Ugo Basile, Gemonio, Italy) according to the manufacturer's instructions. The dipping solution contained 0.8–0.9 g/L NaCl in distilled water and 2–3 mL/L wetting compound (Ugo Basile, Gemonio, Italy) to reduce drop and meniscus build‐up. The paw volume was calculated as a mean of three measurements. The area under the curve was calculated using Prism 10 (Graph Pad) software.
# [5] = Pharmacokinetic profile, plasma (LC-MS); assay type: in vivo; settings: 0.3 mg/kg i.p.
# Description: as §1
# C57BL/6N mice [6] = assay: Spared nerve injury (SNI)-induced neuropathy, mechanical hypersensitivity; assay type: in vivo, mouse; settings: 0.3 mg/kg i.p. on Day 14 after SNI; observed over 48 h
# Description: as §3
# The SNI model was performed as described previously (Bourquin et al. [2006]; Petersen et al. [2019]). Briefly, under isoflurane anaesthesia the tibial and common peroneal branches of the sciatic nerve were ligated and dissected distally. The sural nerve remained intact and the mice developed hypersensitivity in the lateral area of the hindpaw. Vioprolide A (0.3 mg/kg) or vehicle (1% DMSO in 0.9% NaCl) were i.p. administered in a volume of 100 μL 14 days after SNI. Paw withdrawal latencies following mechanical stimulation were assessed using a dynamic plantar aesthesiometer as described above.
# C57BL/6N mice [7] = assay: Vertical pole test; assay type: in vivo, mouse; settings: 3 mg/kg s.c. into the neck; naive mice; 20 and 44 h after administration
# Description: (§4) For the accelerating rotarod test, mice were placed on a rotarod treadmill (Ugo Basile, Gemonio, Italy) at increasing speed (4–40 rpm over 300 s; cutoff time 300 s) and trained for several consecutive days. Only mice that reached 300 s without falling off during the training sessions were included in the experiment. In the vertical pole test, mice were placed with the head pointing upward on a vertical pole and the time needed to reach the ground was recorded (cutoff time 20 s). After baseline measurements, vioprolide A (3 mg/kg) or vehicle (1% DMSO in 0.9% NaCl) was s.c. administered into the neck and the accelerating rotarod test immediately followed by the vertical pole test was performed 20 and 44 h after drug administration. Three trials per mouse were used for evaluation (Balzulat et al. [2024]).
# C57BL/6N mice [8] = assay: Accelerating rotarod test; assay type: in vivo, mouse; settings: 3 mg/kg s.c. into the neck; naive mice; 20 and 44 h after administration
# Description: as §4
# C57BL/6N mice [9] = assay: CFA-induced paw inflammation, mechanical hypersensitivity; assay type: in vivo, mouse
# Description: as §3
# Paw inflammation was induced by injecting 20 μL of complete Freund's adjuvant (CFA; containing 1 mg/mL heat‐killed Mycobacterium tuberculosis in paraffin oil 85% and mannide monooleate 15%; Sigma‐Aldrich, St. Louis, USA) into the plantar side of a hindpaw (Petersen et al. [2019]). Vioprolide A (0.3, 1 or 3 mg/kg), diclofenac (50 mg/kg; Sigma‐Aldrich, St. Louis, USA), or vehicle (1% DMSO in 0.9% NaCl) was i.p. administered in a volume of 100 μL 24 h after the intraplantar CFA injection. Paw withdrawal latencies following mechanical stimulation were assessed using a dynamic plantar aesthesiometer as described above.
# C57BL/6N mice [10] = assay: Von Frey filament test in naive mice; assay type: in vivo, mouse; settings: 3 mg/kg s.c. into the neck, 22 and 46 h after administration
# Description: Immediately after the vertical pole test, mice were placed on a wire‐mesh platform in Plexiglas cylinders and habituated for approximately 1 h. Von Frey filaments ranging from 0.04 to 4 g (Ugo Basile, Gemonio, Italy) were applied to the plantar surface of a hind paw for 1 s with a force causing the filament to bend. Starting with the lowest force, each filament was applied 10 times with a break of at least 2 min. The number of paw withdrawal reactions per 10 applications was used to calculate the withdrawal frequency (Beaulieu‐Laroche et al. [2020]). Measurements were performed at baseline and 22 and 46 h after vioprolide A or vehicle administration.
# mice = settings: cited from earlier work; for cytokines (interleukin-1β, interleukin-6, tumour necrosis factor) in peritoneal lavage after zymosan-induced peritonitis: Stark et al. [2019]
# rodents = system: rodents; set-up: method as in earlier work; settings: local treatment, ref Geranton et al. [2009], Jimenez-Diaz et al. [2008], Price et al. [2007]; cited from earlier work
# C57BL/6N mice [11] = system: C57BL/6N mice; set-up: method as in Metzner et al. [2021]; settings: positive control in a previous study; ref Metzner et al. [2021]; cited from earlier work
# [12] = male, C57BL/6, ip, mouse plasma
smiles,measurement,setting,value
C/C=C1/NC(=O)[C@@H]2CSC(=N2)[C@@H]2C[C@@H](C)N2C(=O)[C@@H](CC(C)C)NC(=O)[C@H](C)NC(=O)[C@@H](O)COC(=O)[C@H](C(C)C)N(C)C(=O)[C@H]([C@@H](C)O)NC(=O)[C@@H]2CCCCN2C1=O [vioprolide A],brain level,[1],not detected in the brain
same,zymosan-induced weight shift towards the frontpaws (visceral nociceptive behaviour),C57BL/6N mice [2],significantly ameliorated; also recorded: significantly lower
same,"zymosan-induced mechanical hypersensitivity (paw withdrawal latency, time course and AUC)",C57BL/6N mice [3],significantly ameliorated; also recorded: significantly reduced
same,"zymosan-induced paw edema (paw volume, time course and AUC)",C57BL/6N mice [4],decreased in a dose‐dependent manner; also recorded: significantly reduced
same,%AUCextra (extrapolated part of AUC0-inf),[5]; mouse plasma,3.9%
same,t 1/2z (half-life of the terminal slope),[5]; mouse plasma,1.0 h
same,t z (time of the last quantifiable sample),[5]; mouse plasma,4.0 h
same,concentration at 4 h,"[5]; male, C57BL/6, intraperitoneal, mouse plasma, read-out: C z (last analytically quantifiable concentration)",0.1 ng/mL
same,AUC(0-t),[5]; [12],3.6 ng·h/mL
same,Cmax,[5]; [12],7.8 ng/mL
same,Tmax,[5]; [12],0.25 h
same,AUC(0-inf),"[5]; male, C57BL/6, ip, mouse plasma, extrapolated to infinity",3.8 ng·h/mL
same,CL/F,"[5]; male, C57BL/6, ip, mouse plasma, read-out: CL/f (total body clearance after extravascular administration) (converted)",1330 mL/min/kg
same,Vd/F,"[5]; male, C57BL/6, ip, mouse plasma, read-out: V z/f (volume of distribution after extravascular administration)",116 L/kg
same,half-life,"[5]; male, C57BL/6, mouse, plasma, ip, 0.3 mg/kg, read-out: t 1/2z (half-life of the terminal slope) (converted)",~1 h
same,SNI-induced mechanical hypersensitivity (paw withdrawal latency),C57BL/6N mice [6],did not affect; also recorded: failed to affect the mechanical hypersensitivity
same,"motor function, vertical pole test",C57BL/6N mice [7],did not affect; also recorded: did not impair motor function
same,"motor function, time on accelerating rotarod",C57BL/6N mice [8],did not affect the time spent on the rotarod; also recorded: did not impair motor function
same,CFA-induced mechanical hypersensitivity (paw withdrawal latency),"C57BL/6N mice [9]; 0.3, 1 and 3 mg/kg i.p. 24 h after intraplantar CFA, observed over 24 h",failed to affect the mechanical hypersensitivity; also recorded: none of the applied doses of vioprolide A affected
same,"mechanical sensitivity, paw withdrawals to von Frey filaments",C57BL/6N mice [10],did not alter mechanical sensitivity
COC(=O)C[C@](O)(CCCC(C)(C)O)C(=O)O[C@@H]1C(OC)=C[C@]23CCCN2CCc2cc4c(cc2[C@H]13)OCO4 [homoharringtonine],"cytokines (interleukin-1β, interleukin-6, tumour necrosis factor) in peritoneal lavage after zymosan-induced peritonitis",mice; ref Burgers et al. [2024],reduced the amount of cytokines
same,pain behaviour during zymosan-induced peritonitis,mice; ref Burgers et al. [2024],ameliorated the pain behaviour
O=C1N[C@@H]2C(=C[C@H](O)[C@@H](O)[C@H]2O)c2cc3c(c(O)c21)OCO3 [narciclasine],"cytokines (interleukin-1β, interleukin-6, tumour necrosis factor) in peritoneal lavage after zymosan-induced peritonitis",mice; ref Burgers et al. [2024],reduced the amount of cytokines
same,visceral pain behaviour in murine peritonitis model,mice; ref Stark et al. [2019],significantly inhibited visceral pain behaviour
CO[C@H]1C[C@@H]2CC[C@@H](C)[C@@](O)(O2)C(=O)C(=O)N2CCCC[C@H]2C(=O)O[C@H]([C@H](C)C[C@@H]2CC[C@@H](O)[C@H](OC)C2)CC(=O)[C@H](C)/C=C(\C)[C@@H](O)[C@@H](OC)C(=O)[C@H](C)C[C@H](C)/C=C/C=C/C=C/1C [rapamycin],persistent pain-like behaviour,rodents,attenuated persistent pain‐like behaviour
CC(C)C[C@H](CN)CC(=O)O [pregabalin],neuropathic pain behaviour in SNI model,C57BL/6N mice [11],attenuated the neuropathic pain behaviour
"O=C(O)Cc1ccccc1Nc1c(Cl)cccc1Cl [diclofenac, reference compound]",CFA-induced mechanical hypersensitivity (paw withdrawal latency),"C57BL/6N mice [9]; 50 mg/kg i.p. 24 h after intraplantar CFA, positive control, statistical significance not reached",visibly attenuated
